According to patent US20240366514A1, “PHARMACEUTICAL COMPOSITIONS OF OZANIMOD” (ZYDUS LIFESCIENCES LIMITED, priority 2021, published 2024):

System: TNBS induced colitis model in rat
Test: Pharmacodynamic (PD) study in TNBS induced colitis model in rat
Assay type: in vivo, Wistar rat male
Experimental: However, these differences in PK parameters were not observed in Pharmacodynamic (PD) study (Experiment 02) conducted in TNBS induced colitis model in rat. […] In this study, the efficacy parameters measured were colon weight to length ratio, colonic […] score (which includes sum of Adhesion score, Stricture score, Ulcer, Wall thickness) and Lymphocyte count. Colon weight to length ratio and macroscopic colon disease score were determined at the end of the study, whereas Lymphocyte count in circulation relative to vehicle treated TNBS challenged diseased animals (Vehicle control) was assessed 24 h after the last dose. […] The reasons for the similar efficacy response even at the differences in PK profile between both the formulations could be due to receptor saturation of S1P1 receptors overexpressed at the intestine at the dose of 1 mg/kg administered in both the treatment groups. […] The cardiac side effects such as Bradyarrhythmia and Atrioventricular Conduction Delays, which are associated with high Cmax from immediate-release formulation, get reduced or eliminated with the use of delayed-release formulation without affecting efficacy. Thus, the delayed-release formulation may also offer the skipping or reduce frequency of up-titration scheme.

For Nc1ccc(O)c(C(=O)O)c1 [Mesalamine], the “Lymphocyte count, % Inhibition (Mean ± SEM)” value (24 h after the last dose, relative to vehicle treated TNBS challenged animals) was 13.39 ± 21.66%, the inhibition at 150 mg/kg (144 h, oral once a day for 6 days, IR 1 mg/kg, DR 0.89 mg/kg, Mesalamine 150 mg/kg, versus vehicle control, read-out: Colon Macroscopic Score, % Inhibition (Mean ± SEM)) was 56.5 ± 5.02% and the “Lymphocyte count (10^3/μL), Observation (Mean ± SEM)” value (circulating, 24 h after the last dose, IR 1 mg/kg, DR 0.89 mg/kg, Mesalamine 150 mg/kg oral for 6 days) was 7.6 ± 1.9 10^3/μL. The “Colon Weight to Length ratio (mg/cm), Observation (Mean ± SEM)” value (oral once a day for 6 consecutive days, IR 1 mg/kg, DR 0.89 mg/kg, Mesalamine 150 mg/kg, end of study) was 120.44 ± 4.22 mg/cm, the “Colon Macroscopic Score [Sum of scores of Adhesion score, Stricture score, Ulcer, Wall thickness], Observation (Mean ± SEM)” value (oral once a day for 6 days, IR 1 mg/kg, DR 0.89 mg/kg, Mesalamine 150 mg/kg, end of study) was 2.5 ± 0.29 and the “Colon Weight to Length ratio, % Inhibition (Mean ± SEM)” value (oral once a day for 6 days, IR 1 mg/kg, DR 0.89 mg/kg, Mesalamine 150 mg/kg, versus vehicle control) was 41.75 ± 2.04%.
